Test results: patent US6737383B1, “Herbicidal oxadiazolidines” (priority 1999, dated 2004)

Experiments:
giant foxtail = test: Test B pre/postemergence giant foxtail; format: in vivo, Setaria faberii
Procedure, shortened: (§1)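 Response is a visual 0-to-10 score relative to untreated plants, where 0 means no effect and 10 means complete control, taken twelve to sixteen days after application. Treatments went onto soil at planting and onto foliage of 1- to 4-leaf plants, using a surfactant-containing non-phytotoxic solvent.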

sugar beet = test: Test B pre/postemergence sugar beet; format: in vivo, Beta vulgaris
Procedure, shortened: as §1

crabgrass = test: Test B pre/postemergence crabgrass; format: in vivo, Digitaria sanguinalis
Procedure, shortened: as §1

cocklebur = test: Test B pre/postemergence cocklebur; format: in vivo, Xanthium strumarium
Procedure, shortened: as §1

wild oat = test: Test B pre/postemergence wild oat; format: in vivo, Avena fatua
Procedure, shortened: as §1

soybean = test: Test B pre/postemergence soybean; format: in vivo, Glycine max
Procedure, shortened: as §1

blackgrass = test: Test B pre/postemergence blackgrass; format: in vivo, Alopecurus myosuroides
Procedure, shortened: as §1

wheat = test: Test B pre/postemergence wheat; format: in vivo, Triticum aestivum
Procedure, shortened: as §1

duck salad = test: Test B flood test duck salad; format: in vivo, Heteranthera limosa
Procedure, shortened: (§2)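 Flood test on plants grown to the 2-leaf stage; treated plants kept in greenhouse twelve to sixteen days, then visually rated against controls on a 0 (no effect) to 10 (complete control) scale.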

smallflower flatsedge = test: Test B flood test smallflower flatsedge; format: in vivo, Cyperus difformis
Procedure, shortened: as §2

rape = test: Test B pre/postemergence rape; format: in vivo, Brassica napus
Procedure, shortened: as §1

purple nutsedge = test: Test B pre/postemergence purple nutsedge; format: in vivo, Cyperus rotundus
Procedure, shortened: as §1

surinam grass = test: Test B pre/postemergence surinam grass; format: in vivo, Brachiaria decumbens
Procedure, shortened: as §1

morningglory = test: Test B pre/postemergence morningglory; format: in vivo, Ipomoea hederacea
Procedure, shortened: as §1

corn = test: Test B pre/postemergence corn; format: in vivo, Zea mays
Procedure, shortened: as §1

velvetleaf = test: Test B pre/postemergence velvetleaf; format: in vivo, Abutilon theophrasti
Procedure, shortened: as §1

[1] = Postemergence, Rate 125 g/ha, scale 0 to 10, 0 is no effect, 10 is complete control
[2] = Postemergence, Rate 250 g/ha, scale 0 to 10, 0 is no effect, 10 is complete control
[3] = Postemergence, Rate 500 g/ha, scale of 0 to 10 where 0 is no effect and 10 is complete control
[4] = Preemergence, Rate 62 g/ha, scale 0 to 10 (0 no effect, 10 complete control)
[5] = Preemergence, Rate 125 g/ha, scale of 0 to 10 where 0 is no effect and 10 is complete control
[6] = Preemergence, Rate 250 g/ha, scale 0 to 10, 0 is no effect, 10 is complete control
[7] = Preemergence, Rate 500 g/ha, scale 0 to 10, 0 is no effect, 10 is complete control
[8] = Rate 62 g/ha, Postemergence, scale of 0 to 10 where 0 is no effect and 10 is complete control
[9] = Preemergence, Rate 250 g/ha, scale of 0 to 10 where 0 is no effect and 10 is complete control
[10] = Rate 62 g/ha, flood test species, Pre-emergence, visual evaluation after twelve to sixteen days
[11] = Rate 125 g/ha, under heading Pre-emergence, flood test species, visual evaluation after twelve to sixteen days
[12] = Rate 250 g/ha, Pre-emergence, flood-test species, scale 0 to 10, 0 is no effect, 10 is complete control
[13] = Rate 500 g/ha, Pre-emergence, flood test species, scale 0 to 10 (0 no effect, 10 complete control)

CC(C)N(C(=O)n1oc(=O)n(CC2CCC2)c1=O)c1ccc(F)cc1 [Compound 403]
10: Plant response rating, Giant foxtail (giant foxtail; [4]) | Plant response rating, Giant foxtail (giant foxtail; [5]) | Giant foxtail plant response rating (giant foxtail; [6]) | Giant foxtail plant response rating (giant foxtail; [7]) | Plant response rating, Crabgrass (crabgrass; [4]) | Plant response rating, Crabgrass (crabgrass; [5]) | Crabgrass plant response rating (crabgrass; [6]) | Crabgrass plant response rating (crabgrass; [7]) | Plant response rating, Blackgrass (blackgrass; [2]) | Blackgrass plant response rating (blackgrass; [3]) | Morningglory plant response rating (morningglory; [3])
3: Plant response rating, Giant foxtail (giant foxtail; [1]) | Giant foxtail plant response rating (giant foxtail; [8]) | Sugarbeets plant response rating (sugar beet; [3]) | Sugarbeets plant response rating (sugar beet; [6]) | Plant response rating, Crabgrass (crabgrass; [1]) | Plant response rating, B. signalgrass (surinam grass; [2]) | Plant response rating, B. signalgrass (surinam grass; [4]) | Velvetleaf plant response rating (velvetleaf; [6])
4: Plant response rating, Wild oats (wild oat; [5]) | Soybean plant response rating (soybean; [8]) | Wheat plant response rating (wheat; [3]) | Plant response rating, Rape (rape; [2]) | Plant response rating, B. signalgrass (surinam grass; [5])
0: Plant response rating, Sugarbeets (sugar beet; [2]) | Plant response rating, Sugarbeets (sugar beet; [4]) | Sugarbeets plant response rating (sugar beet; [8]) | Plant response rating, Cocklebur (cocklebur; [1]) | Plant response rating, Cocklebur (cocklebur; [2]) | Cocklebur plant response rating (cocklebur; [3]) | Plant response rating, Cocklebur (cocklebur; [4]) | Plant response rating, Cocklebur (cocklebur; [5]) | Cocklebur plant response rating (cocklebur; [6]) | Cocklebur plant response rating (cocklebur; [8]) | Plant response rating, Wild oats (wild oat; [4]) | Wild oats plant response rating (wild oat; [8]) | Plant response rating, Soybean (soybean; [4]) | Plant response rating, Soybean (soybean; [5]) | Soybean plant response rating (soybean; [6]) | Plant response rating, Wheat (wheat; [4]) | Plant response rating, Wheat (wheat; [5]) | Wheat plant response rating (wheat; [6]) | Wheat plant response rating (wheat; [7]) | Wheat plant response rating (wheat; [8]) | Plant response rating, Ducksalad (0 to 10 scale, 0 is no effect, 10 is complete control) (duck salad; [10]) | Ducksalad plant response rating (0 to 10 scale, 0 is no effect, 10 is complete control) (duck salad; [11]) | Ducksalad plant response rating (duck salad; [12]) | Ducksalad plant response rating (duck salad; [13]) | Plant response rating, S. Flatsedge (0 to 10 scale, 0 is no effect, 10 is complete control) (smallflower flatsedge; [10]) | S. Flatsedge plant response rating (0 to 10 scale, 0 is no effect, 10 is complete control) (smallflower flatsedge; [11]) | S. Flatsedge plant response rating (smallflower flatsedge; [12]) | Plant response rating, Rape (rape; [4]) | Plant response rating, Nutsedge (purple nutsedge; [2]) | Nutsedge plant response rating (purple nutsedge; [3]) | Plant response rating, Nutsedge (purple nutsedge; [4]) | Plant response rating, Nutsedge (purple nutsedge; [5]) | Nutsedge plant response rating (purple nutsedge; [6]) | Nutsedge plant response rating (purple nutsedge; [7]) | Nutsedge plant response rating (purple nutsedge; [8]) | B. signalgrass plant response rating (surinam grass; [8]) | Plant response rating, Morningglory (morningglory; [4]) | Plant response rating, Morningglory (morningglory; [5]) | Morningglory plant response rating (morningglory; [6]) | Morningglory plant response rating (morningglory; [7]) | Plant response rating, Corn (corn; [1]) | Plant response rating, Corn (corn; [2]) | Corn plant response rating (corn; [3]) | Plant response rating, Corn (corn; [4]) | Corn plant response rating (corn; [8]) | Plant response rating, Velvetleaf (velvetleaf; [2]) | Plant response rating, Velvetleaf (velvetleaf; [4]) | Plant response rating, Velvetleaf (velvetleaf; [5]) | Velvetleaf plant response rating (velvetleaf; [8])
8: Plant response rating, Crabgrass (crabgrass; [2]) | Wild oats plant response rating (wild oat; [7]) | Soybean plant response rating (soybean; [3]) | Plant response rating, Morningglory (morningglory; [2])
1: Plant response rating, Sugarbeets (sugar beet; [5]) | Plant response rating, Rape (rape; [5])
2: Crabgrass plant response rating (crabgrass; [8]) | Soybean plant response rating (soybean; [7]) | Plant response rating, Blackgrass (blackgrass; [4]) | Rape plant response rating (rape; [8]) | Plant response rating, B. signalgrass (surinam grass; [1]) | Morningglory plant response rating (morningglory; [8]) | Plant response rating, Corn (corn; [5]) | Corn plant response rating (corn; [6])
6: Plant response rating, Soybean (soybean; [2]) | Blackgrass plant response rating (blackgrass; [8]) | S. Flatsedge plant response rating (smallflower flatsedge; [13]) | B. signalgrass plant response rating (surinam grass; [3]) | Corn plant response rating (corn; [7]) | Velvetleaf plant response rating (velvetleaf; [3])
7: Plant response rating, Blackgrass (blackgrass; [5]) | Blackgrass plant response rating (blackgrass; [9]) | Rape plant response rating (rape; [3]) | Rape plant response rating (rape; [7]) | B. signalgrass plant response rating (surinam grass; Preemergence, Rate 500 g/ha, scale of 0 to 10 where 0 is no effect and 10 is complete control)
9: Plant response rating, Giant foxtail (giant foxtail; [2]) | Giant foxtail plant response rating (giant foxtail; [3]) | Crabgrass plant response rating (crabgrass; [3]) | Plant response rating, Blackgrass (blackgrass; [1]) | Blackgrass plant response rating (blackgrass; [7])
5: Sugarbeets plant response rating (sugar beet; [7]) | Wild oats plant response rating (wild oat; [3]) | Wild oats plant response rating (wild oat; [6]) | Rape plant response rating (rape; [6]) | B. signalgrass plant response rating (surinam grass; [9]) | Velvetleaf plant response rating (velvetleaf; [7])
